Measured values: article PMC10689823, “Discovery of a Drug-like, Natural Product-Inspired DCAF11 Ligand Chemotype” (Nature Communications, 2023)

Target: BRD4S-TagBFP reporter (Homo sapiens, UniProt O60885)
Assay: FACS-based CRISPR/Cas9 BRD4 protein stability screen
Procedure: The virus containing supernatant was cleared of cellular debris by filtration through a 0.45-µm PES filter and used to transduce KBM7 BRD4-BFP reporter cells harboring a doxycycline inducible Cas9 allele at a multiplicity of infection (MOI) of 0.05 and 1,000-fold library representation. Library-transduced cells were selected with G418 (1 mg ml^−1, Gibco) for 14 days, expanded and Cas9 expression was induced with DOX (0.4 µg ml^−1, PanReac AppliChem).
Cells were washed with and stored in FACS buffer (PBS containing 5% FBS and 1 mM EDTA) at 4 °C overnight. The next day, cells were strained trough a 35 µm nylon mesh and sorted on a BD FACSAria™ Fusion (BD Biosciences) using a 85 µm nozzle. Aggregates, dead (ZombieNIR positive), Cas9-negative (GFP) and sgRNA library-negative (Thy1.1-APC) cells were excluded, and the remaining cells were sorted based on their BRD4-BFP and mCherry levels into BRD4^HIGH (10% of cells), BRD4^MID (30%) and BRD4^LOW (10%) fractions. For each sample, cells corresponding to at least 2,000-fold library representation were sorted per replicate.
Next-generation sequencing (NGS) libraries of sorted cell fractions were prepared as previously described[25]. In brief, genomic DNA was isolated by cell lysis (10 mM Tris-HCl, 150 mM NaCl, 10 mM EDTA, 0.1% SDS), proteinase K treatment (New England Biolabs) and DNAse-free RNAse digest (Thermo Fisher Scientific), followed by two rounds of phenol extraction and 2-propanol precipitation. Isolated genomic DNA was subjected to several freeze–thaw cycles before nested polymerase chain reaction (PCR) amplification of the sgRNA cassette.
Barcoded NGS libraries for each sorted population were generated using a two-step PCR protocol using AmpliTaq Gold (Invitrogen). The resulting PCR products were purified using Mag-Bind® TotalPure NGS beads (Omega Bio-tek) and amplified in a second PCR introducing the standard Illumina adapters. The final Illumina libraries were bead-purified, pooled and sequenced on a HiSeq 3500 platform (Illumina).
Screen analysis was performed as previously described[25]. Briefly, sequencing reads were quantified using the crispr-process-nf Nextflow workflow, available at https://github.com/ZuberLab/crispr-process-nf/tree/566f6d46bbcc2a3f49f51bbc96b9820f408ec4a3. For statistical analysis, we used the crispr-mageck-nf Nextflow workflow, available at https://github.com/ZuberLab/crispr-mageck-nf/tree/c75a90f670698bfa78bfd8be786d6e5d6d4fc455. To calculate gene-level enrichment, the sorted populations (BRD4^HIGH or BRD4^LOW) were compared to the BRD4^MID populations in MAGeCK (0.5.9)[46], using median normalized read counts.

In the case of `Cc1sc2c(c1C)C(c1ccc(Cl)cc1)=N[C@@H](CC(=O)NCCOCCOCCOCCOCCNC(=O)COc1c(Br)cc(/C=C3\C(=O)Nc4ccc(Br)cc43)cc1Br)c1nnc(C)n1-2` [Compound 9], the Low_lfc (Gene FBXL18, Mageck_Gene level) is reported as 0.05, the Low_logP (Gene FBXL18, Mageck_Gene level) is reported as 0.07 and the High_lfc (Gene FBXL19, Mageck_Gene level) is reported as -0.41. For the same molecule, the High_logP (Gene FBXL19, Mageck_Gene level) was 0, the Low_lfc (Gene FBXL19, Mageck_Gene level) was 0.11 and the Low_logP (Gene FBXL19, Mageck_Gene level) was 0.48. For the same molecule, the High_lfc (Gene FBXL20, Mageck_Gene level) was -0.06, the High_logP (Gene FBXL20, Mageck_Gene level) was 0.09 and the Low_lfc (Gene FBXL20, Mageck_Gene level) was -0.11. For the same molecule, the Low_logP (Gene FBXL20, Mageck_Gene level) was 0.04, the High_lfc (Gene FBXL21, Mageck_Gene level) was -0.29 and the High_logP (Gene FBXL21, Mageck_Gene level) was 0.09. The Low_lfc (Gene FBXL21, Mageck_Gene level) was -0.29, the Low_logP (Gene FBXL21, Mageck_Gene level) was 0.01 and the High_lfc (Gene FBXL22, Mageck_Gene level) was 0.14. The High_logP (Gene FBXL22, Mageck_Gene level) was 0.24, the Low_lfc (Gene FBXL22, Mageck_Gene level) was 0.36 and the Low_logP (Gene FBXL22, Mageck_Gene level) was 0.63. It also gave a High_lfc (Gene FBXO2, Mageck_Gene level) of -0.09, a High_logP (Gene FBXO2, Mageck_Gene level) of 0.03 and a Low_lfc (Gene FBXO2, Mageck_Gene level) of 0.42. For the same molecule, the Low_logP (Gene FBXO2, Mageck_Gene level) was 1.6, the High_lfc (Gene FBXO10, Mageck_Gene level) was 0.22 and the High_logP (Gene FBXO10, Mageck_Gene level) was 0.52. It also gave a Low_lfc (Gene FBXO10, Mageck_Gene level) of -0.18, a Low_logP (Gene FBXO10, Mageck_Gene level) of 0.08 and a High_lfc (Gene FBXO11, Mageck_Gene level) of -0.38. For the same molecule, the High_logP (Gene FBXO11, Mageck_Gene level) was 0.01, the Low_lfc (Gene FBXO11, Mageck_Gene level) was -0.03 and the Low_logP (Gene FBXO11, Mageck_Gene level) was 0.19. For the same molecule, the High_lfc (Gene FBXO15, Mageck_Gene level) was -0.34, the High_logP (Gene FBXO15, Mageck_Gene level) was 0.01 and the Low_lfc (Gene FBXO15, Mageck_Gene level) was -0.22. It also gave a Low_logP (Gene FBXO15, Mageck_Gene level) of 0.07, a High_lfc (Gene FBXO16, Mageck_Gene level) of -0.28 and a High_logP (Gene FBXO16, Mageck_Gene level) of 0.17. For the same molecule, the Low_lfc (Gene FBXO16, Mageck_Gene level) was -0.34, the Low_logP (Gene FBXO16, Mageck_Gene level) was 0.13 and the High_lfc (Gene FBXO17, Mageck_Gene level) was 0.05. For the same molecule, the High_logP (Gene FBXO17, Mageck_Gene level) was 0.04, the Low_lfc (Gene FBXO17, Mageck_Gene level) was -0.01 and the Low_logP (Gene FBXO17, Mageck_Gene level) was 0.24. It also gave a High_lfc (Gene FBXO18, Mageck_Gene level) of 0.01, a High_logP (Gene FBXO18, Mageck_Gene level) of 0.35 and a Low_lfc (Gene FBXO18, Mageck_Gene level) of -0.24. It also gave a Low_logP (Gene FBXO18, Mageck_Gene level) of 0.06, a High_lfc (Gene FBXO21, Mageck_Gene level) of -0.09 and a High_logP (Gene FBXO21, Mageck_Gene level) of 0.15. For the same molecule, the Low_lfc (Gene FBXO21, Mageck_Gene level) was 0.26, the Low_logP (Gene FBXO21, Mageck_Gene level) was 0.57 and the High_lfc (Gene FBXO22, Mageck_Gene level) was 0.33. It also gave a High_logP (Gene FBXO22, Mageck_Gene level) of 0.56, a Low_lfc (Gene FBXO22, Mageck_Gene level) of 0.08 and a Low_logP (Gene FBXO22, Mageck_Gene level) of 0.24. It also gave a High_lfc (Gene FBXO24, Mageck_Gene level) of 0.01, a High_logP (Gene FBXO24, Mageck_Gene level) of 0.17 and a Low_lfc (Gene FBXO24, Mageck_Gene level) of 0.28. The Low_logP (Gene FBXO24, Mageck_Gene level) was 0.95, the High_lfc (Gene FBXO25, Mageck_Gene level) was -0.09 and the High_logP (Gene FBXO25, Mageck_Gene level) was 0.13. For the same molecule, the Low_lfc (Gene FBXO25, Mageck_Gene level) was -0.06, the Low_logP (Gene FBXO25, Mageck_Gene level) was 1.23 and the High_lfc (Gene FBXO27, Mageck_Gene level) was 0.07. It also gave a High_logP (Gene FBXO27, Mageck_Gene level) of 0.26, a Low_lfc (Gene FBXO27, Mageck_Gene level) of 0.17 and a Low_logP (Gene FBXO27, Mageck_Gene level) of 0.61. The High_lfc (Gene FBXO28, Mageck_Gene level) was 0.25, the High_logP (Gene FBXO28, Mageck_Gene level) was 0.91 and the Low_lfc (Gene FBXO28, Mageck_Gene level) was -0.03. It also gave a Low_logP (Gene FBXO28, Mageck_Gene level) of 0.09, a High_lfc (Gene FBXO30, Mageck_Gene level) of -0.15 and a High_logP (Gene FBXO30, Mageck_Gene level) of 0.06. It also gave a Low_lfc (Gene FBXO30, Mageck_Gene level) of 0.12, a Low_logP (Gene FBXO30, Mageck_Gene level) of 0.2 and a High_lfc (Gene FBXO31, Mageck_Gene level) of 0.02. The High_logP (Gene FBXO31, Mageck_Gene level) was 0.11, the Low_lfc (Gene FBXO31, Mageck_Gene level) was 0.28 and the Low_logP (Gene FBXO31, Mageck_Gene level) was 0.85. The High_lfc (Gene FBXO32, Mageck_Gene level) was 0.06, the High_logP (Gene FBXO32, Mageck_Gene level) was 0.14 and the Low_lfc (Gene FBXO32, Mageck_Gene level) was 0.27. It also gave a Low_logP (Gene FBXO32, Mageck_Gene level) of 0.47, a High_lfc (Gene FBXO33, Mageck_Gene level) of -0.49 and a High_logP (Gene FBXO33, Mageck_Gene level) of 0. It also gave a Low_lfc (Gene FBXO33, Mageck_Gene level) of 0.19, a Low_logP (Gene FBXO33, Mageck_Gene level) of 0.87 and a High_lfc (Gene FBXO34, Mageck_Gene level) of 0.22. The High_logP (Gene FBXO34, Mageck_Gene level) was 0.61, the Low_lfc (Gene FBXO34, Mageck_Gene level) was 0.1 and the Low_logP (Gene FBXO34, Mageck_Gene level) was 0.25. The High_lfc (Gene FBXO36, Mageck_Gene level) was -0.13, the High_logP (Gene FBXO36, Mageck_Gene level) was 0.23 and the Low_lfc (Gene FBXO36, Mageck_Gene level) was -0.41. The Low_logP (Gene FBXO36, Mageck_Gene level) was 0.06, the High_lfc (Gene FBXO38, Mageck_Gene level) was -0.17 and the High_logP (Gene FBXO38, Mageck_Gene level) was 0.01. For the same molecule, the Low_lfc (Gene FBXO38, Mageck_Gene level) was 0.33, the Low_logP (Gene FBXO38, Mageck_Gene level) was 0.72 and the High_lfc (Gene FBXO39, Mageck_Gene level) was 0. It also gave a High_logP (Gene FBXO39, Mageck_Gene level) of 0.18, a Low_lfc (Gene FBXO39, Mageck_Gene level) of 0.15 and a Low_logP (Gene FBXO39, Mageck_Gene level) of 0.56. For the same molecule, the “CRL substrate receptor scoring as top hit (gene required for BRD4 degradation)” value (KBM7 BRD4-BFP reporter cells, 9 0.5 µM, 10 1 µM, dBET6 10 nM, 6 hours) was “DCAF11”, the High_lfc (gene FBXO3) was 0.05 and the High_logP (gene FBXO3) was 0.25. It also gave a Low_lfc (gene FBXO3) of -0.2, a Low_logP (gene FBXO3) of 0.19 and a High_lfc (gene FBXO4) of 0.12. The High_logP (gene FBXO4) was 0.38, the Low_lfc (gene FBXO4) was -0.12 and the Low_logP (gene FBXO4) was 0.07. It also gave a High_lfc (gene FBXO5) of -0.26, a High_logP (gene FBXO5) of 0.37 and a Low_lfc (gene FBXO5) of -0.71. For the same molecule, the Low_logP (gene FBXO5) was 0.02, the High_lfc (gene FBXO6) was -0.04 and the High_logP (gene FBXO6) was 0.23. The Low_lfc (gene FBXO6) was -0.19, the Low_logP (gene FBXO6) was 0.36 and the High_lfc (gene FBXO7) was 0.07. The High_logP (gene FBXO7) was 0.57, the Low_lfc (gene FBXO7) was 0.01 and the Low_logP (gene FBXO7) was 0.76. It also gave a High_lfc (gene FBXO8) of 0.03, a High_logP (gene FBXO8) of 0.11 and a Low_lfc (gene FBXO8) of -0.03. The Low_logP (gene FBXO8) was 0.11, the High_lfc (gene FBXO9) was -0.02 and the High_logP (gene FBXO9) was 0.04. For the same molecule, the Low_lfc (gene FBXO9) was -0.02, the Low_logP (gene FBXO9) was 0.52 and the High_lfc (gene FBXO40) was -0.13. For the same molecule, the High_logP (gene FBXO40) was 0.02, the Low_lfc (gene FBXO40) was -0.27 and the Low_logP (gene FBXO40) was 0.13. The High_lfc (gene FBXO41) was 0.17, the High_logP (gene FBXO41) was 0.26 and the Low_lfc (gene FBXO41) was -0.12. It also gave a Low_logP (gene FBXO41) of 0.01, a High_lfc (gene FBXO42) of 0.01 and a High_logP (gene FBXO42) of 0.18. For the same molecule, the Low_lfc (gene FBXO42) was 0.28, the Low_logP (gene FBXO42) was 1.35 and the High_lfc (gene FBXO43) was 0.05. For the same molecule, the High_logP (gene FBXO43) was 0.29, the Low_lfc (gene FBXO43) was 0.06 and the Low_logP (gene FBXO43) was 0.07. The High_lfc (gene FBXO44) was 0, the High_logP (gene FBXO44) was 0.11 and the Low_lfc (gene FBXO44) was 0.17. For the same molecule, the Low_logP (gene FBXO44) was 0.24, the High_lfc (gene FBXO45) was 0.31 and the High_logP (gene FBXO45) was 0.64. It also gave a Low_lfc (gene FBXO45) of -0.13, a Low_logP (gene FBXO45) of 0.16 and a High_lfc (gene FBXO46) of 0.28. It also gave a High_logP (gene FBXO46) of 0.48, a Low_lfc (gene FBXO46) of 0.32 and a Low_logP (gene FBXO46) of 1.6. It also gave a High_lfc (gene FBXO47) of -0.53, a High_logP (gene FBXO47) of 0.06 and a Low_lfc (gene FBXO47) of -0.35. The Low_logP (gene FBXO47) was 0.03, the High_lfc (gene FBXO48) was -0.41 and the High_logP (gene FBXO48) was 0.11. For the same molecule, the Low_lfc (gene FBXO48) was 0, the Low_logP (gene FBXO48) was 0.25 and the High_lfc (gene FBXW2) was -0.12. The High_logP (gene FBXW2) was 0.08, the Low_lfc (gene FBXW2) was -0.53 and the Low_logP (gene FBXW2) was 0.05. It also gave a High_lfc (gene FBXW4) of -0.31, a High_logP (gene FBXW4) of 0.02 and a Low_lfc (gene FBXW4) of 0.22. It also gave a Low_logP (gene FBXW4) of 0.62, a High_lfc (gene FBXW5) of -0.14 and a High_logP (gene FBXW5) of 0.16. The Low_lfc (gene FBXW5) was 0.15, the Low_logP (gene FBXW5) was 0.39 and the High_lfc (gene FBXW7) was 0.41. It also gave a High_logP (gene FBXW7) of 1.48, a Low_lfc (gene FBXW7) of -0.31 and a Low_logP (gene FBXW7) of 0.05. The High_lfc (gene FBXW8) was -0.18, the High_logP (gene FBXW8) was 0.19 and the Low_lfc (gene FBXW8) was 0.19. The Low_logP (gene FBXW8) was 0.52, the High_logP (gene FBXW9) was 0 and the High_lfc (gene FBXW10) was -0.05. It also gave a High_logP (gene FBXW10) of 0.14, a Low_lfc (gene FBXW10) of -0.09 and a Low_logP (gene FBXW10) of 0.05. The High_lfc (gene FBXW11) was 0.12, the High_logP (gene FBXW11) was 0.29 and the Low_lfc (gene FBXW11) was -0.29. The Low_logP (gene FBXW11) was 0.06, the High_lfc (gene FBXW12) was -0.19 and the High_logP (gene FBXW12) was 0.02. It also gave a Low_lfc (gene FBXW12) of -0.05, a Low_logP (gene FBXW12) of 0.24 and a High_logP (gene FEM1A) of 0.43.
